The nature of data set [1]: Cytotoxicity against human Chang cells after 48 hrs by MTT assay. In kind it is cell-based. On the technique in general: Formazan colour is commonly taken as a measure of viable cells.
The subject of a further data set is SK-HEP1. The data set can be described thus: Cytotoxicity against human SKHep1 cells after 48 hrs by MTT assay. The class given is functional, cell-based. The settings on record: for pIC50: SK-HEP1, 48 h.
A further data set deals with B16. The data set can be described thus: Cytotoxicity against […] B16 cells after 48 hrs by MTT assay. To be noted: Mus musculus; for pIC50: B16, 48 h. The class given is functional, cell-based.
Data set [2] can be described thus: (§1) Cytotoxicity against human BEL-7404 cells after 48 hrs by MTT assay. In kind it is functional, cell-based. The settings on record: BEL-7404, 48 h.
A further data set relates to BEL-7404. The data set is described as §1. In kind it is functional, cell-based.

Molecules are shown by their SMILES. pIC50: −log10 of the molar value. Calls of active or inactive are those of the source. The calls are words filed in the database; no cut-off is given here.

One may read the pIC50 as the IC50 on a negative log10 scale, so that one unit is a factor of ten. A higher pIC50 goes with a low IC50. For the compound `CCCCCCCCCC[C@H](O)COCCOC[C@@H](O)CCCCCCCCCCCCC1=CC(C)(C)N(C)C1=O`, the Activity result in data set [1] is reported as “Not Active”. Also, the pIC50 was 6.23 in the data set on SK-HEP1, 6.32 in the data set on B16 and 6.07 in data set [2].
The corresponding values for `CCCCCCCCCC[C@H](O)COCCOC[C@@H](O)CCCCCCCCCCCCC1=C[C@H](C)OC1=O` are “Not Active”, 7.19, 7.46 and 7.39.
`CCCCCCCCCC[C@H](O)COCCOC[C@@H](O)CCCCCCCCCCCCC1=C[C@H](C)N(CCCNC(=O)C(F)(F)F)C1=O`: the Activity entry in data set [1] is recorded as “Not Active”. The outcome with SK-HEP1 was inactive. In addition, the pIC50 with B16 is 6.00; in data set [2], 5.87.
On to `CCCCCCCCCC[C@H](O)COCCOC[C@@H](O)CCCCCCCCCCCCC1=C[C@H](C)N(CCCNC(=O)CCCCCNC(=O)CCCCCNC(=O)OC(C)(C)C)C1=O`, for which, in data set [1], the Activity entry was “Not Active”. Moreover, the outcome with SK-HEP1 and with B16 was inactive. The same compound showed a pIC50 in data set [2] of 5.60.
As to `CCCCCCCCCC[C@H](O)COCCOC[C@@H](O)CCCCCCCCCCCCC1=C[C@H](C)N(CCCNC(=O)CCCCCNC(=S)Nc2ccc3c(c2)C(=O)OC32c3ccc(O)cc3Oc3cc(O)ccc32)C1=O`, in data set [1], the Activity result is listed as “Not Active”. The result in the data set with SK-HEP1, in the data set on B16 and in the data set with BEL-7404 was inactive.
For the compound `CCCCCCCCCC[C@H](O)COCCOC[C@@H](O)CCCCCCCCCCCCC1=C[C@H](C)N(CCCNC(=O)CCCCCNC(=O)OC(C)(C)C)C1=O`, in data set [1], the Activity entry is “Not Active”. In addition, the result with SK-HEP1 and with B16 was inactive. For the same compound, in data set [2], the pIC50 is 5.49.
Turning to `CCCCCCCCCC[C@H](O)COCCOC[C@@H](O)CCCCCCCCCCCCC1=C[C@H](C)N(C)C1=O`, the Activity entry in data set [1] is “Not Active”. Moreover, the pIC50 with SK-HEP1 was 6.23; in the data set with B16, 7.89; in data set [2] it was 6.63.
`CCCCCCCCCC[C@H](O)COCCOC[C@@H](O)CCCCCCCCCCCCC1=C[C@H](C)NC1=O`: the Activity result in data set [1] was “Not Active”. Besides, the outcome with SK-HEP1 was inactive. In addition, the pIC50 with B16 was 7.46; in data set [2], 5.66.
As for `CCCCCCCCCC[C@H](O)COCCOC[C@@H](O)CCCCCCCCCCCCC1=CCN(C)C1=O`, in data set [1], the Activity entry is “Not Active”. In addition, the pIC50 in the data set on SK-HEP1 is 6.98; with B16, 6.77; in data set [2] it was 6.77.

These data come from ChEMBL document CHEMBL1139936, “Annonaceous acetogenin mimics bearing a terminal lactam and their cytotoxicity against cancer cells” (Bioorg Med Chem Lett, 2007).
